Assay results: patent US4621101A, “Pharmaceutical compositions with antianginal activity” (Egis Gyogyszergyar, priority 1984, dated 1986)
Where two headings read alike, the source gives them in different places.

Columns and labels:
[1] = Acute intravenous toxicity (LD50) and therapeutic index, Table II; conditions: in vivo; for selectivity ratio: from LD50 and ED50, iv.; for LD50: iv.
[2] = Antianginal effect in rats after intravenous administration, method of Nieschulz, Popendiker and Hofmann; type: in vivo; conditions: Rattus norvegicus

Compound | selectivity ratio [1] | LD50 [1] | ED50 [2] | ED50 ([2]; read-out: ED50)
CC(Cc1ccccc1)NCCC(c1ccccc1)c1ccccc1 (stereo not drawn) [Prenylamine, N-3,3-di-phenylpropyl-1-methylphenyl-ethylamine, reference compound] | 1.77 | 11.5 mg/kg | 6.5 mg/kg | 
CN(C)CCO/N=C1\CCCCCC1Cc1ccccc1 (stereo not drawn) [compound D, 2-benzyl-1-[(E)-(2-dimethylamino-ethoxyimino)]-cycloheptane] | 76.9 | 40 mg/kg |  | 0.52 mg/kg
CC(C)N(CCCO/N=C1\CCCC\C1=C/c1ccc(Cl)cc1)C(C)C [compound F, 2-[(E)-(4-chlorophenyl)-methylene]-1-[(E)-(3-diisopropylamino)-propyloxyimino]-cyclohexane] | 120 | 42 mg/kg |  | 0.35 mg/kg
CC(C)N(CCCO/N=C1\CCCC\C1=C/c1ccccc1)C(C)C [compound G, 2-[(E)-phenylmethylene]-1-[(E)-(3-diisopropylaminopropyloxyimino)]-cyclohexane] | 32.9 | 12.5 mg/kg |  | 0.38 mg/kg
